According to patent US20240254119A1 (THIRD HARMONIC BIO, INC., priority 2022, published 2024):

Legend:
CSF-1R = biological target: T1, CSF-1R (Homo sapiens, UniProt P07333); assay: HTRF biochemical assay, CSF-1R; details: Table 4
T1 construct: purchased Invitrogen PV3249 (lot 662393N)
Procedure, shortened: (§1)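 Kinase phosphorylation of a FAM-labelled peptide substrate, with ATP and Mn^2+ cofactors, run for 3 h at 25 °C, with optional enzyme–compound pre-incubation. Reactions were quenched with EDTA, and phosphopeptide was detected by anti-phosphotyrosine antibody HTRF.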

wtKIT = biological target: T2, wtKIT (Homo sapiens, UniProt P10721); assay: HTRF biochemical assay, wtKIT (phosphorylation of a peptide substrate); details: Table 4
T2 construct: 1888289AM in the reaction mixtures
T2 sequence (P10721 26-976): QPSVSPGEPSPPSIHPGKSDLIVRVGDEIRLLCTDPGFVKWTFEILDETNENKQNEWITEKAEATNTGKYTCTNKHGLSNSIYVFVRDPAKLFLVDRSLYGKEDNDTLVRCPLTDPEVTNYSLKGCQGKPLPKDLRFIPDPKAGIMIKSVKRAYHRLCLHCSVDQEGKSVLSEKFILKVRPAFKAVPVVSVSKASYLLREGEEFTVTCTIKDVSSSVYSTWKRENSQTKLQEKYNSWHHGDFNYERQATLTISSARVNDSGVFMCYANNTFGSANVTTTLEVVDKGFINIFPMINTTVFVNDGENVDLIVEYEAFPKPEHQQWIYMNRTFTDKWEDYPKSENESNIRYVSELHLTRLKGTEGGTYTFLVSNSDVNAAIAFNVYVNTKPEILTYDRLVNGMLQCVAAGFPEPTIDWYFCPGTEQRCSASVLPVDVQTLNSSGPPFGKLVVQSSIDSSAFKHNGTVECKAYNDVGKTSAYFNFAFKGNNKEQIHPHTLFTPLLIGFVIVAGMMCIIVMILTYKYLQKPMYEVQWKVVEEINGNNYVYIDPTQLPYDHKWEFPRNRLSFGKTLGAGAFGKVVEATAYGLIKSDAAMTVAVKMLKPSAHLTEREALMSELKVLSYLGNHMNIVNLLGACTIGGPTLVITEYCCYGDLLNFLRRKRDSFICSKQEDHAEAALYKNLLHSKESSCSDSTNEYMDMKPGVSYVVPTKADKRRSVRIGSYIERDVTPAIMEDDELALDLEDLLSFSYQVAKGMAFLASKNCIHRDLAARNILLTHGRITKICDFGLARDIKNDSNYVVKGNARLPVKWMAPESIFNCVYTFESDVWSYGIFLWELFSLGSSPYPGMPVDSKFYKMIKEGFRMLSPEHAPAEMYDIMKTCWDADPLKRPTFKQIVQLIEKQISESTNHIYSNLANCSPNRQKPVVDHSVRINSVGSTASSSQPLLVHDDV
Procedure, shortened: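 wtKIT (5.0 nM) phosphorylating 1 µM FAM-labelled peptide with 400 µM ATP and 10 mM MnCl2 in 100 mM HEPES pH 7.5, 1% DMSO, 3 h at 25 °C. EDTA quench; phosphopeptide detected with anti-phosphotyrosine antibody by HTRF. Enzyme titrated for 10-20% substrate conversion.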

[1] = biological target: T3, KIT-NanoLuc fusion in HEK293 cells (Homo sapiens, UniProt P10721); assay: NanoBRET cellular target engagement assay, KIT; assay type: cell-based
T3 construct: expressed in transfected cells; host or cells: HEK293, transient transfection
T3 sequence (P10721 26-976): as above
Description: (§2) Exemplary compounds were tested for their ability to inhibit target engagement of KIT or CSF-1R kinases through competitive displacement of a Nano-Luc luciferase kinase fusion in HEK293 cells.
(§3) The NanoBRET target engagement assay employs an energy transfer technique designed to measure molecular proximity in living cells. The assay measures the apparent affinity of test compounds by competitive displacement of the NanoBRET tracer, reversibly bound to a NanoLuc luciferase-kinase fusion construct in cells. The intracellular binding affinity and selectivity are physiologically relevant and fundamental to the pharmacological mechanism of the compounds. While biochemical and biophysical assays identify the kinase inhibitors in vitro, the NanoBRET target engagement assay serves to determine the direct interaction of the compounds binding to target kinases in cells.
(§4) HEK293 cells transiently expressing NanoLuc-DDR1 fusion vector were seeded into 384-well plates and treated with the Tracer K-4 and compound for 1 hour. The BRET signal was measured on an EnVision 2104 multilabel microplate reader. NanoBRET Target Engagement Assay in HEK293 cells transiently transfected with KIT and CSF1R-NanoLuc Fusion Vector. HEK293 cells were transfected with […] KIT or CSF1R-NanoLuc Fusion Vector and […] carrier DNA. The transfected cells were treated with test compounds (starting at 10 μM, 10-dose with 3-fold dilution) and reference compound (desatinib) (starting at 1 μM, 10-dose with 3-fold dilution). Percent inhibition due to compound activity was calculated to determine IC50.

PDGFRα = biological target: T4, PDGFRα (Homo sapiens, UniProt P16234); assay: HTRF biochemical assay, PDGFRα; details: Table 4, read-out: PDFGRα Biochemical IC50 avg
T4 construct: purchased Millipore 14-467 (lot 26321_ACTI)
T4 sequence (P16234 24-1089): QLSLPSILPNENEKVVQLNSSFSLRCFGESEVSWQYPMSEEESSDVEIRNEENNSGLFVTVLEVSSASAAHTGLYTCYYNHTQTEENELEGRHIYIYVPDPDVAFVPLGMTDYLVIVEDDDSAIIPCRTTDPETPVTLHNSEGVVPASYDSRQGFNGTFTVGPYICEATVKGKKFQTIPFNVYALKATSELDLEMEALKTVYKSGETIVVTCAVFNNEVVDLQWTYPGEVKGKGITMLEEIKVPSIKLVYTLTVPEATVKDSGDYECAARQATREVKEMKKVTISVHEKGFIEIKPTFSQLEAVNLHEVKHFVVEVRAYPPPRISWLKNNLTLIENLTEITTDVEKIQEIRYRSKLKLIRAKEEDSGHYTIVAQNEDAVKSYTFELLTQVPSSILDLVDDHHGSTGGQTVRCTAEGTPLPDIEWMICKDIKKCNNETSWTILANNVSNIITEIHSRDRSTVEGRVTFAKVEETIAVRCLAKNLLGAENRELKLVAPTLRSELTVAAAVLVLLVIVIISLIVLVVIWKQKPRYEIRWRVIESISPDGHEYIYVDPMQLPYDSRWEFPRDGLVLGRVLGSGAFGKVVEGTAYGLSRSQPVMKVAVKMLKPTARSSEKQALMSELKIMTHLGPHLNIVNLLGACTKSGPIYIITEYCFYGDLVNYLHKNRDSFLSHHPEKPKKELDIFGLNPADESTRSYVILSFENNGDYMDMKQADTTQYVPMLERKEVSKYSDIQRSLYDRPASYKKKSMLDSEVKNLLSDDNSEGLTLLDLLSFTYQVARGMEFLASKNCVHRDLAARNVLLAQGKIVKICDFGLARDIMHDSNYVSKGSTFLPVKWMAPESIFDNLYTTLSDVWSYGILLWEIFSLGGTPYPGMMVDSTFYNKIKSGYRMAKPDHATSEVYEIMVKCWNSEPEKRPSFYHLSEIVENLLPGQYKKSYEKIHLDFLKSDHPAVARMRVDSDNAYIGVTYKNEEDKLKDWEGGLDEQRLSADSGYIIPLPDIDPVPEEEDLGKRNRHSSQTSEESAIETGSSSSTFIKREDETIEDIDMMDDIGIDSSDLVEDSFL
Procedure, shortened: as §1

[2] = biological target: T5, CSF1R-NanoLuc fusion in HEK293 cells (Homo sapiens, UniProt P07333); assay: NanoBRET cellular target engagement assay, CSF-1R; assay type: cell-based
T5 construct: expressed in transfected cells; host or cells: HEK293, transient transfection
T5 sequence (P07333 20-972): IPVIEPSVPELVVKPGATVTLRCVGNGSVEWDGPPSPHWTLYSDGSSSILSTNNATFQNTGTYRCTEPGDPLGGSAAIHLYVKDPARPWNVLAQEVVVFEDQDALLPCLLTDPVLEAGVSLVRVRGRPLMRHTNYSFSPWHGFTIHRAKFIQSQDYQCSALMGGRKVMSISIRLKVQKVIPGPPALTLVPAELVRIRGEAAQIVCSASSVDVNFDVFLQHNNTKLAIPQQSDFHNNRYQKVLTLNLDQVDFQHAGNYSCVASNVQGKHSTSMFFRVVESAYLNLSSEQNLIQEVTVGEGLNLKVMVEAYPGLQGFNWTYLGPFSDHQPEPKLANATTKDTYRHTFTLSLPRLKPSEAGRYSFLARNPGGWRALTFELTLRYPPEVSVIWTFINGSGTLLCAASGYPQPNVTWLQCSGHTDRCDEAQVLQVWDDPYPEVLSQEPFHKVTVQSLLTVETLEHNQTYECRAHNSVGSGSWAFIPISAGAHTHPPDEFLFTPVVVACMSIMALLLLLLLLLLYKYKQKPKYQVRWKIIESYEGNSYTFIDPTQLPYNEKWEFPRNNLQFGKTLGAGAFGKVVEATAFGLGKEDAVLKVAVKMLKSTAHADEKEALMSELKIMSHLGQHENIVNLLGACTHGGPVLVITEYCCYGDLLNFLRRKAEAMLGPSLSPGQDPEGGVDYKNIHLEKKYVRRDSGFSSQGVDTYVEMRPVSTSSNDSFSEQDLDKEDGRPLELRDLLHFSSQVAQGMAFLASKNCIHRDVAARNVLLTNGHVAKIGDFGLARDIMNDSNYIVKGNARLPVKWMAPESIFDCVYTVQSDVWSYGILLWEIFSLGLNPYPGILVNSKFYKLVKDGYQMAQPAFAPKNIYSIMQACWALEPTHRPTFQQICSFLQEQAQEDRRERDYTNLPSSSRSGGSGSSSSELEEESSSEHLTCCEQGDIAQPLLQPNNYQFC
Description: as §2, §3, §4

CYP3A4 = assay: Hepatocyte CYP induction assay, CYP3A4 gene expression; assay type: in vitro ADME; details: human hepatocytes
Procedure, shortened: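 Cryopreserved human hepatocytes in Matrigel sandwich culture were dosed in 0.1% DMSO for 48 h at 37 °C, with medium and compound renewed at 24 h, in triplicate; rifampicin was the positive control. CYP3A4 mRNA was measured by qPCR, normalized to 18S rRNA, and fold change (2^−ΔΔCt vs vehicle) […].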

T1 sequence (P07333 20-972): as above

SMILES | IC50 (CSF-1R) | IC50 (wtKIT) | IC50 [1] | IC50 (PDGFRα) | IC50 [2] | CYP 3A4 induction mRNA: Mean fold at 10 μM (CYP3A4; donor five) | CYP 3A4 induction mRNA: Mean fold at 10 μM (CYP3A4; donor four) | CYP 3A4 induction mRNA: Mean fold at 10 μM (CYP3A4; donor one) | CYP 3A4 induction mRNA: Mean fold at 10 μM (CYP3A4; donor three)
Cc1ccc(-c2noc([C@H]3C[C@@H]3F)n2)cc1NC(=O)c1cnc2cc(OC(C)C)ccn12 [Compound I-88] | ≤ 50 nM | ≤ 50 nM | ≤ 100 nM | 0.5 to 5 µM | > 10 µM | + (induction fold of less than or equal to 2-fold) | + (induction fold of less than or equal to 2-fold) | + (induction fold of less than or equal to 2-fold) | –
Cc1ccc(-c2noc(CC(O)C(F)F)n2)cc1NC(=O)c1cnc2ccccn12 (stereo not drawn) [Compound I-114] | 50 to 500 nM | ≤ 50 nM | ≤ 100 nM | 5 to 30 µM | > 10 µM | + (induction fold of less than or equal to 2-fold) | + (induction fold of less than or equal to 2-fold) | – | + (induction fold of less than or equal to 2-fold)
Cc1ccc(-c2noc([C@H]3C[C@@H]3F)n2)cc1NC(=O)c1cnc2cc(COCC(C)(C)O)ccn12 [Compound I-71, N-[5-[5-[(1R,2S)-2-fluorocyclopropyl]-1,2,4-oxadiazol-3-yl]-2-methyl-phenyl]-7-[(2-hydroxy-2-methyl-propoxy)methyl]imidazo[1,2-a]pyridine-3-carboxamide] | ≤ 50 nM | ≤ 50 nM | ≤ 100 nM | 5 to 30 µM | > 10 µM | + (induction fold of less than or equal to 2-fold) | + (induction fold of less than or equal to 2-fold) | + (induction fold of less than or equal to 2-fold) | –
